Measured values reported in patent US20140349970A1 (ABBVIE INC., priority 2009, published 2014).
Where a name gives a salt, the structure may show the parent alone.

Each compound was assayed against T1, Syk catalytic domain (aa 356-635 with a C-terminal His-tag) (Homo sapiens, UniProt P43405) (assay: In vitro Syk kinase activity measured by trFRET, Syk catalytic domain). Settings: not given.
T1 construct: His-tag (C); made in house
Format: biochemical
Experimental: In Vitro Syk Kinase Activity Measured by Time-Resolved Fluorescence Resonance Energy Transfer (trFRET)
0.14 nM purified Syk catalytic domain (aa 356-635 with a C-terminal His-tag purified in-house by immobilized metal ion affinity chromatography) was mixed with 0.2 μM peptide substrate (biotin-TYR1, Sequence: Biotin-(Ahx)-GAEEEIYAAFFA-COOH) at varying inhibitor concentrations in reaction buffer: 50 mM MOPSO pH 6.5, 10 mM MgCl2, 2 mM MnCl2, 2.5 mM DTT, 0.01% BSA, 0.1 mM Na3VO4 and 0.001 mM ATP. After about 60 min incubation at rt, the reaction was quenched by addition of EDTA (final concentration: 100 mM) and developed by addition of revelation reagents (final approximate concentrations: 30 mM HEPES pH 7.0, 0.06% BSA, 0.006% Tween-20, 0.24 M KF, 80 ng/mL PT66K (europium labeled anti-phosphotyrosine antibody cat #61T66KLB Cisbio, Bedford, Mass.) and 0.6 μg/mL SAXL (Phycolink streptavidin-allophycocyanin acceptor, cat #PJ255, Prozyme, San Leandro, Calif.). The developed reaction was incubated in the dark either at about 4° C. for about 14 h or for about 60 min at rt, then read via a time-resolved fluorescence detector (Rubystar, BMG) using a 337 nm laser for excitation and monitoring emission wavelengths at 665 nm. Within the linear range of the assay, the observed signal at 665 nm was directly related to phosphorylated product and can be used to calculate the IC50 values.
MOPSO buffer contains: 50 mM MOPSO pH 6.5, 10 mM MgCl2, 2 mM MnCl2, 2.5 mM DTT, 0.01% BSA, and 0.1 mM Na3VO4 HEPES buffer contains: 50 mM HEPES pH 7.1, 2.5 mM DTT, 10 mM MgCl2, 2 mM MnCl2, 0.01% BSA, and 0.1 mM Na3VO4 MOPS buffer contains: 20 mM MOPS pH 7.2, 10 mM MgCl2, 5 mM EGTA, 5 mM Beta-phosphoglycerol, 1 mM Na3VO4, 0.01% Triton-X-100 and 1 mM DTT
Biotin-TYR1-peptide sequence: Biotin-(Ahx)-GAEEEIYAAFFA-COOH Biotin-TYR2-peptide sequence: Biotin-(Ahx)-AEEEYFFLFA-amide KinEASE 51 peptides were purchased from Cisbio (cat #62ST0PEB, Bedford, Mass.)
PT66K was purchased from Cisbio (cat #61T66KLB, Bedford, Mass.) EuSTK was purchased from Cisbio (cat #62ST0PEB, Bedford, Mass.) SAXL was purchased from Prozyme (cat #PJ25S, San Leandro, Calif.) Human T-Blasts IL-2 pSTAT5 Cellular Assay

IC50 [µM] | SMILES
1 to 10 | CC(C)(O)c1ccc(-c2nc(CN)n3c2cnc2[nH]ccc23)cc1 [AC.5.6, 2-(4-(1-(Aminomethyl)-6H-imidazo[1,5-a]pyrrolo[2,3-e]pyrazin-3-yl)phenyl)propan-2-ol]
0.1 to 1 | COc1ccc(-c2nc(C)n3c2cnc2[nH]ccc23)cn1 [AC.1.21]
0.1 to 1 | Cc1c(-c2ccc(C(C)(C)O)cc2)[nH]c2ncc3nncn3c12 [S.1.4]
< 0.1 | Cc1nc(-c2ccc(C(C)(C)O)c(F)c2)c2cnc3[nH]ccc3n12 [AC.1.20]
0.1 to 1 | CCc1c(-c2ccc(C(C)(C)N)cc2)[nH]c2ncc3cnn(C)c3c12 [P.3.1.3]
0.1 to 1 | CC(C)(N)CCc1nc(-c2ccc(C(C)(C)O)cc2)c2cnc3[nH]ccc3n12 [T.4.1.3]
> 10 | C1=C(c2ncn3c2cnc2[nH]ccc23)CCNC1 [P.3.1.4, 3-(1,2,3,6-Tetrahydropyridin-4-yl)-6H-imidazo[1,5-a]pyrrolo[2,3-e]pyrazine]
0.1 to 1 | Cc1nc(-c2ccc(S(C)(=O)=O)cc2)c2cnc3[nH]ccc3n12 [AC.1.6]
0.1 to 1 | O=C(c1ccc(-c2nc(C3CCCCC3)n3c2cnc2[nH]ccc23)cc1)N1CCOCC1 [AC.3.28]
1 to 10 | Fc1ccc(-c2nc(C3CCCCC3)n3c2cnc2[nH]ccc23)cc1 [AC.3.2]
< 0.1 | CCc1c(-c2ccc(C(C)(C)O)cc2)[nH]c2ncc3cccn3c12 [S.1.6]
< 0.1 | Cn1nc(-c2ccc(C(C)(C)O)cc2)c2cnc3[nH]ccc3c21 [S.1.3]
< 0.1 | Cc1nc(-c2ccc(C3(O)CCNCC3)cc2)c2cnc3[nH]ccc3n12 [P.3.1.5, 4-(4-(1-Methyl-6H-imidazo[1,5-a]pyrrolo[2,3-e]pyrazin-3-yl)phenyl)piperidin-4-ol hydrochloride]
0.1 to 1 | CS(=O)(=O)NCc1ccc(-c2nc(C3CCCCC3)n3c2cnc2[nH]ccc23)cc1 [AC.3.18]
0.1 to 1 | COc1ccc(-c2nc(CN3CCNC(CO)C3)n3c2cnc2[nH]ccc23)cc1 (stereo not shown) [T.3.1.6]
1 to 10 | COc1ccc(-c2nc(C)n3c2cnc2[nH]ccc23)c(CO)c1 [AC.1.2]
< 0.1 | COc1cc2c(-c3cc4c(ncc5cnn(C)c54)[nH]3)cn(C)c2cn1 [AC.2.1]

Same assay, conditions: Syk catalytic domain (aa 356-635), trFRET, 0.001 mM ATP

SMILES | IC50 [µM]
CCc1c(-c2ccc3c(ccn3C)c2)[nH]c2ncc3cnn(C)c3c12 [N.1.15] | 1 to 10
CC(C)(O)c1ccc(-c2nc(-c3cccnc3C#N)n3c2cnc2[nH]ccc23)cc1 [Example 6, 3-(3-(4-(2-Hydroxypropan-2-yl)phenyl)-6H-imidazo[1,5-a]pyrrolo[2,3-e]pyrazin-1-yl)picolinonitrile] | 1 to 10
CCc1c[nH]c2ncc3c(-c4cccnc4)nn(C)c3c12 [N.1.75] | 1 to 10
CCOCCCNC(=O)Cn1cccc1-c1cc2c(ncc3cnn(C)c32)[nH]1 [J.2.3.1] | 1 to 10
CCc1c(-c2cccc(C(=O)NCCN3CCOCC3)c2)[nH]c2ncc3cnn(C)c3c12 [N.1.30] | 1 to 10
COc1ccc(-c2nc(CCN(C)C)n3c2cnc2[nH]ccc23)cc1 [N.1.105] | 1 to 10
COc1ccc(-c2nc(CNC3CCCCC3O)n3c2cnc2[nH]ccc23)cc1 (stereo not shown) [N.1.93] | 1 to 10
COc1ccc2c(c1)c(-c1cc3c(ncc4cnc(C)n43)n1COP(=O)(O)O)cn2C [Example 10, (7-(5-Methoxy-1-methyl-1H-indol-3-yl)-1-methyl-6H-imidazo[1,5-a]pyrrolo[2,3-e]pyrazin-6-yl) methyl disodium phosphate] | 1 to 10
COc1ccc(-c2nc(CNC3CC3)n3c2cnc2[nH]ccc23)cc1 [N.1.114] | 1 to 10
CC(=O)N1CC=C(c2ncn3c2cnc2[nH]ccc23)CC1 [J.2.1.5] | 1 to 10
CCc1c(-c2ccc(C(=O)NCCN3CCOCC3)cc2)[nH]c2ncc3cnn(C)c3c12 [N.1.36] | 0.1 to 1
Cn1ncc2cnc3[nH]c(-c4cccc(CN)c4)cc3c21 [T.3.1, (3-(1-Methyl-1,6-dihydropyrazolo[3,4-d]pyrrolo[2,3-b]pyridin-7-yl)phenyl)methanamine] | 1 to 10
COCCC(=O)NCc1cccc(-c2cc3c(ncc4cnn(C)c43)[nH]2)c1 [J.1.1.2] | 0.1 to 1
CCc1c(-c2cccc3c2ccn3C)[nH]c2ncc3cnn(C)c3c12 [N.1.16] | > 10
Cn1cc(-c2cc3c(ncc4cnn(C)c43)[nH]2)c2nccnc21 [N.1.117] | 0.1 to 1

The remaining lines, values ahead:

IC50 [µM] | SMILES
< 0.1 | Cn1cc(-c2cc3c(ncc4cnn(C)c43)[nH]2)c2cc(C(=O)N3CCC(CO)CC3)ccc21 [J.1.8.3]
0.1 to 1 | Cn1ncc2cnc3[nH]c(-c4cccc(CNS(C)(=O)=O)c4)cc3c21 [K.1, N-(3-(1-Methyl-1,6-dihydropyrazolo[3,4-d]pyrrolo[2,3-b]pyridin-7-yl)benzyl)methanesulfonamide]
0.1 to 1 | CS(=O)(=O)c1cccc(-c2cc3c(ncc4cnc(C5CCC(O)C5)n43)[nH]2)c1 (stereo not shown) [M.1.6]
< 0.1 | Cn1cc(-c2cc3c(ncc4cnn(C)c43)[nH]2)c2cc(C(=O)O)ccc21 [AN.1, 1-Methyl-3-(1-methyl-1,6-dihydropyrazolo[3,4-d]pyrrolo[2,3-b]pyridin-7-yl)-1H-indole-5-carboxylic acid]
0.1 to 1 | CC(C)(O)c1ccc(-c2nc([C@@H]3CCCC[C@H]3CN)n3c2cnc2[nH]ccc23)cc1 (racemic) [N.1.78]
0.1 to 1 | Cc1ccc(-c2cc3c(ncc4cnc(N5CCCC5)n43)[nH]2)cc1 [M.1.18]
0.1 to 1 | CC(C)(O)c1ccc(-c2ncn3c2cnc2[nH]cc(CO)c23)cc1 [N.1.110]
0.1 to 1 | COc1ccc2c(c1)c(-c1cc3c(ncc4cnn(C)c43)[nH]1)nn2C [N.1.83]
0.1 to 1 | COc1ccc(-c2nc(C(C)C)n3c2cnc2[nH]ccc23)cc1 [N.1.91]
< 0.1 | Cn1cc(-c2cc3c(ncc4cnn(C)c43)[nH]2)c2cc(OCCN3CCOCC3)ccc21 [N.1.112]
0.1 to 1 | CCc1c(-c2ccc(OC)cc2)[nH]c2ncc3cnn(C)c3c12 [N.1.43]
0.1 to 1 | CS(=O)(=O)c1cccc(-c2cc3c(ncc4cnc(CCCN)n43)[nH]2)c1 [T.1.1.6]
0.1 to 1 | COCCNS(=O)(=O)c1cccc(-c2cc3c(ncc4cnn(C)c43)[nH]2)c1 [N.1.42]
< 0.1 | CC(C)(O)c1ccc(-c2nc(N3CCC(CN)C3)n3c2cnc2[nH]ccc23)cc1 (stereo not shown) [N.1.66]
0.1 to 1 | CC(=O)NCCCc1ncc2cnc3[nH]c(-c4cnn(C)c4)cc3n12 [J.2.1.3]
0.1 to 1 | COc1ccc2c(c1)c(-c1cc3c(ncc4cnc([C@@H]5CCN(C(C)=O)C5)n43)[nH]1)cn2C [J.2.1.1]
< 0.1 | COc1ccc2c(c1)c(-c1cc3c(ncc4cnc([C@@H]5CC[C@H](NC(C)=O)C5)n43)[nH]1)cn2C [J.2.1.9]
0.1 to 1 | COc1ccc2c(c1)c(-c1cc3c(ncc4cnc(CN)n43)[nH]1)cn2C [T.2.1, (7-(5-Methoxy-1-methyl-1H-indol-3-yl)-6H-imidazo[1,5-a]pyrrolo[2,3-e]pyrazin-1-yl)methanamine]
< 0.1 | COc1ccc2c(c1)c(-c1cc3c(ncc4cnc(CCN)n43)[nH]1)cn2C [T.1.1.4]
< 0.1 | CNC(=O)c1cccc(-c2cc3c(ncc4cnn(C)c43)[nH]2)c1 [N.1.4]
< 0.1 | COc1ccc2c(c1)c(-c1cc3c(ncc4cnn(C)c43)[nH]1)cn2CCO [N.2.12]
< 0.1 | CC(C)(O)c1ccc(-c2nc(C3CCCCC3)n3c2cnc2[nH]ccc23)cc1 [N.1.49]
< 0.1 | Cn1ncc2cnc3[nH]c(-c4cccc(S(=O)(=O)NCCO)c4)cc3c21 [N.1.34]
< 0.1 | Cc1nc(-c2ccc(C(C)(C)O)cc2)c2cnc3[nH]ccc3n12 [N.1.50, 2-(4-(1-methyl-6H-imidazo[1,5-a]pyrrolo[2,3-e]pyrazin-3-yl)phenyl)propan-2-ol]
< 0.1 | Cc1nc(-c2ccc(C3(O)CCN(C(=O)OC(C)(C)C)CC3)cc2)c2cnc3[nH]ccc3n12 [N.1.99]
0.1 to 1 | Cn1ncc2cnc3[nH]c(-c4cccc(S(=O)(=O)NCCN5CCOCC5)c4)cc3c21 [N.1.41]
0.1 to 1 | Cn1cc(-c2cc3c(ncc4cnn(C)c43)[nH]2)c2cnccc21 [N.1.100]
< 0.1 | COc1ccc(-c2nc(C(=O)NCCO)n3c2cnc2[nH]ccc23)cc1 [J.1.2.1]
< 0.1 | Cn1cc(-c2cc3c(ncc4cnn(C)c43)[nH]2)c2cc(C(=O)NCCN3CCOCC3)ccc21 [J.1.8.1]
